From patent US5066817A, “DC115A compounds produced by streptomyces sp” (Kyowa Hakko Kogyo Co., Ltd., priority 1989, dated 1991) come the findings set out here.

In brackets after ≈: the same amount, converted by molar mass. Some results are limits rather than exact numbers.

One data set deals with tumor cells. Kind of data set: Growth inhibition of tumor cells, overall result of (B) and (C). Type of data set: cell-based. The following applies: from the results of (B) and (C). Here is the method: (§1) A T24 cell suspension ([…]) prepared by suspending T24 cells in a medium comprising F10 medium (GIBCO Co., Ltd.), […] fetal calf serum, 100 units/ml penicillin and 100 μg/ml streptomycin (hereinafter referred to as medium A) was put into wells of a 96-well microtiter plate in an amount of 0.1 ml per well. After incubation at 37° C. for 20 hours in a […], 0.05 ml of a sample appropriately diluted with medium A was added to each well. The cells were further cultured at 37° C. for 72 hours in the CO2 -incubator and the culture supernatant was removed. To the residue was added a medium comprising medium A and 0.02% Neutral Red in an amount of 0.1 ml per well, followed by culturing at 37° C. for one hour in the CO2 -incubator, whereby the cells were stained. After the culture supernatant was removed, the residue was washed once with physiological saline.
(§2) Then, the pigment was extracted with 0.001N hydrochloric acid/30% ethanol and absorbance at 550 nm was measured with a microplate reader. By comparing the absorbance of intact cells with those of the cells treated with a test compound at known concentrations, the concentration of the test compound at which the growth of the cells is inhibited by 50% (IC50) was determined.
(§3) IC50 was determined in the same manner as in the case of T24 cells except that a suspension of HeLaS3 cells (3×10^4 cells/ml) prepared by suspending HeLaS3 cell medium comprising MEM medium (Nissui Pharmaceutical Co., Ltd.) and 2 mM glutamine was used.

Another data set is described as follows: Solubility. Type of data set: physicochemical.
Data set [1] deals with Klebsiella pneumoniae ATCC 10031. Kind of data set: Antibacterial activity, agar dilution method (pH 7.0). Type of data set: cell-based. To be noted: ATCC10031, read-out: Minimum Inhibitory Concentration. As for the experimental part:
(§4) The minimum inhibitory concentration (MIC) against various bacteria was determined by the agar dilution method (pH 7.0).

Data set [2] deals with Salmonella typhi ATCC 9992. The description is as above. The following applies: Salmonella enterica, pH 7, read-out: Minimum Inhibitory Concentration. The class given is cell-based. Here is the method:
as §4

The subject of a further data set is Escherichia coli ATCC 26. The data set is described as above. The class given is cell-based. To be noted: ATCC26, read-out: Minimum Inhibitory Concentration. Here is the method:
as §4

In data set [3] the test system is Staphylococcus aureus ATCC 6538P. The description is as above. Type of data set: cell-based. To be noted: ATCC6538P, read-out: Minimum Inhibitory Concentration. As for the experimental part: as §4
Data set [4] has as its system Bacillus subtilis No. 10707. Described as above. The class given is cell-based. The following applies: read-out: Minimum Inhibitory Concentration. Here is the method: as §4
For a further data set, the system named is T24 cells. Kind of data set: Growth inhibition against T24 cells (Neutral Red staining). Type of data set: cell-based. The following applies: Homo sapiens, T-24, 72 hours. Here is the method:
as §1, §2

Another data set deals with HeLaS3 cells. Kind of data set: Growth inhibition against HeLaS3 cells. The following applies: Homo sapiens, HeLa S3, 72 hours. The class given is cell-based. Here is the method: as §1, §2, §3
[5] abbreviates: chloroform, dimethylsulfoxide, methanol, ethyl acetate and acetone.

One may read the IC50 as the point on the concentration scale where inhibition reaches its midpoint. High values mean a need for much substance, low ones inhibition by little substance. Turning to `CCCC1OC1(C)c1cc(=O)c2c(CC(=O)O)cc3cc4c(c(O)c3c2o1)C(=O)CCC4OC(C)=O` (stereo not drawn) [DC115A1], the “inhibition of growth of tumor cells” value with tumor cells is listed as “inhibit the growth of tumor cells”. In addition, the Solubility entry was “Soluble” in “Solubility” (setting [5]); “sparingly soluble” in “Solubility” (water and n-hexane). Besides, the MIC is > 100 µg/mL in [1]; > 100 µg/mL in [2]; > 100 µg/mL with Escherichia coli ATCC 26; 5.2 µg/mL (≈ 10.5 µM) in data set [3]; 10 µg/mL (≈ 20.2 µM) in data set [4]. For the same molecule, the IC50 stood at 0.17 µg/mL (≈ 0.344 µM) in the data set with T24 cells and 0.22 µg/mL (≈ 0.445 µM) with HeLaS3 cells.

As for `CC=CC1OC1(C)c1cc(=O)c2c(CC(=O)O)cc3cc4c(c(O)c3c2o1)C(=O)CCC4OC(C)=O` (stereo not drawn) [DC115A3], the “inhibition of growth of tumor cells” value in the data set with tumor cells was “inhibit the growth of tumor cells”. Moreover, the Solubility result is “Soluble” in the data set “Solubility” (setting [5]); “sparingly soluble” in the data set “Solubility” (water and n-hexane). Further, the MIC worked out at 5.2 µg/mL (≈ 10.6 µM) in data set [1]; 83 µg/mL (≈ 169 µM) in data set [2]; 21 µg/mL (≈ 42.6 µM) in the data set with Escherichia coli ATCC 26; 0.3 µg/mL (≈ 0.609 µM) in [3]; 1.3 µg/mL (≈ 2.64 µM) in [4]. In addition, the IC50 in the data set with T24 cells was found to be 0.14 µg/mL (≈ 0.284 µM); with HeLaS3 cells, 0.42 µg/mL (≈ 0.853 µM).

Regarding `CCC1OC1(C)c1cc(=O)c2c(CC(=O)O)cc3cc4c(c(O)c3c2o1)C(=O)CCC4OC(C)=O` (stereo not drawn) [DC115A2], the “inhibition of growth of tumor cells” value in the data set with tumor cells is on record as “inhibit the growth of tumor cells”. Also, the Solubility entry in “Solubility” (setting [5]) is on record as “Soluble”; in “Solubility” (water and n-hexane), “sparingly soluble”. Besides, the MIC in [1] was 10 µg/mL (≈ 20.8 µM); in data set [2], > 100 µg/mL; in the data set with Escherichia coli ATCC 26, 83 µg/mL (≈ 173 µM); in data set [3], 2.6 µg/mL (≈ 5.41 µM); in data set [4], 10 µg/mL (≈ 20.8 µM). In addition, the IC50 was 0.11 µg/mL (≈ 0.229 µM) in the data set with T24 cells and 0.19 µg/mL (≈ 0.395 µM) in the data set with HeLaS3 cells.
